Results from patent US10294248B2, “Beta-lactamase inhibitors” (VenatoRx Pharmaceuticals, Inc., priority 2013, dated 2019).

Key:
[1] = molecular target: T1, KPC-2 β-lactamase (Class A carbapenemase) (Klebsiella pneumoniae, UniProt Q9F663); assay: β-Lactamase inhibition, KPC-2; type: biochemical; conditions: imipenem substrate, 300 nm; 15 min preincubation at 37° C., PBS pH 7.4
T1 construct: made in house; host or cells: E. coli BL21(DE3)
Procedure: (§1) For SHV-5, Kpc-2, p99AmpC and OXA-1 β-lactamases, E. coli BL21(DE3) bacterial cells carrying expression plasmids (expressed as native untagged proteins) for the individual β-lactamases were grown in 1 L of Superbroth (Teknova Inc. Hollister, Calif.) supplemented with 100 μg/ml kanamycin selection and 1×5052 (0.5% glycerol, 0.05% glucose and 0.2% α-lactose) at 35° C. for 18-20 hours. Cells were harvested by centrifugation (4,000×g, 4° C., 20 min), resuspended in 50 ml of 10 mM HEPES pH 7.5 ( 1/20 of the initial volume). The cells were lysed by sonication (5 pulses of 45 seconds) at 45 W on ice. The lysates were clarified by centrifugation at 10,000×g for 40 minutes at 4° C. Samples were diluted 5-fold in 50 mM sodium acetate pH 5.0, stored overnight at 4° C., after which they were centrifuged at 10,000×g for 30 minutes to clarify, and filtered through 0.45 μm filters. The samples were loaded onto a 5 ml Capto S sepharose cation exchange column (GE Healthcare) pre-equilibrated with 50 mM sodium acetate pH 5.0. The column was washed with 5 column volumes of 50 mM sodium acetate pH 5.0 to wash out unbound protein and a linear gradient of NaCl (0 to 500 mM) was used to elute the protein (over 16 CV) from the column. Fractions were assayed for β-lactamase activity using Centa (Calbiochem, Gibbstown, N.J.) or Nitrocefin (EMD Millipore chemicals, Darmstadt, Germany) as a reporter β-lactamase substrate for activity in the isolated fractions. Active fractions were pooled, concentrated and further purified by gel filtration chromatography on a Superdex 75 prep grade gel filtration column (GE Healthcare, Piscataway, N.J.) pre-equilibrated in 50 mM Hepes pH 7.5, 150 mM NaCl. Active fractions were pooled concentrated, quantitated by BCA protein determination (Thermo Scientific, Rockford, Ill.), dialyzed into PBS and frozen at −80° C. in 20% glycerol until use.
(§2) An equal volume of diluted enzyme stock was added, and the plates were incubated at 37° C. for 15 min. Nitrocefin was used as substrate for p99 AmpC, VIM-2 and OXA-1 and dispensed into each well at a final concentration of 100 μM. Absorbance at 486 nm was immediately monitored for 10 min using a Biotek Powerwave XS2 microplate spectrophotometer using the GEN5 software package (Biotek Instruments, Winooski Vt.). In an analogous fashion, imipenem was used as substrate for Kpc-2 and Cefotaxime was used for SHV-5, while changes in absorbance upon hydrolysis of the β-lactam ring were monitored at 300 nm and 260 nm respectively in UV-transparent 96-well microtiter assay plates. Maximum rates of hydrolysis were compared to those in control wells (without inhibitors), and percentages of enzyme inhibition were calculated for each concentration of inhibitor. The concentration of inhibitor needed to reduce the initial rate of hydrolysis of substrate by 50% (IC50) was calculated as the residual activity of β-lactamase at 486 nm using GraFit version 7 kinetics software package (Erithacus Software, Surrey, UK).
(§3) Using the methodology described above, examples of the current invention were evaluated for their ability to inhibit β-lactamase enzymes from all four Ambler classifications (A through D). […] NT=Not tested.

[2] = molecular target: T2, VIM-2 metallo-β-lactamase (Class B) (Pseudomonas aeruginosa, UniProt Q9K2N0); assay: β-Lactamase inhibition, VIM-2; type: biochemical; conditions: nitrocefin 100 μM, 486 nm; 15 min preincubation at 37° C., PBS pH 7.4
T2 construct: made in house; host or cells: E. coli BL21(DE3)
Procedure: For Vim-2 metallo β-lactamase, the procedure was identical with the following exceptions, first the protein was not pH adjusted to pH 5 with 50 mM sodium acetate, second, the chromatography step was changed to a 5 ml Q sepharose anion exchange column pre-equilibrated with 50 mM Hepes pH 7.5, and elution of the protein was achieved by a linear gradient of NaCl (0-600 mM). Finally, the VIM-2 purification required a second run (3rd step) on the Q sepharose anion exchange column to achieve acceptable purity (>90%).
as §2, §3

[3] = molecular target: T3, SHV-5 β-lactamase (Class A ESBL) (Klebsiella pneumoniae, UniProt P0A3M1); assay: β-Lactamase inhibition, SHV-5; type: biochemical
T3 construct: made in house; host or cells: E. coli BL21(DE3)
T3 sequence (P0A3M1 22-286): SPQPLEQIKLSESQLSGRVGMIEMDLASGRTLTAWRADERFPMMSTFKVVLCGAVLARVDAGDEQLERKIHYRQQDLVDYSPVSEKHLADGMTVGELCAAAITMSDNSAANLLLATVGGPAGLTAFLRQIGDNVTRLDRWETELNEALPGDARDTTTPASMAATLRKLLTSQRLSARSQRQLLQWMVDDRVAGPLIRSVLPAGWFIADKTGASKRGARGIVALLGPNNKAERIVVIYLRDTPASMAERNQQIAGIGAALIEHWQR
Procedure: as §1, §2, §3

[4] = tested on: K. pneumoniae A-1797 expressing KPC-2 and VIM-4; assay: Broth microdilution MIC, K. pneumoniae A-1797 KPC-2/VIM-4; type: cell-based; conditions: fixed 4 μg/mL meropenem; CAMHB, 16-20 hours at 37° C.
Source text: (§4) To determine the ability of test compounds to potentiate the inhibition of the growth of bacterial strains that produce beta-lactamase enzymes, classic cell based broth microdilution MIC assays were employed. Six bacteria strains producing beta-lactamase enzymes were used: E. coli expressing the Class A Extended Spectrum Beta-Lactamase (ESBL) CTX-M-15, E. cloacae expressing the Class C P99, K. pneumoniae expressing the Class A carbapenemase KPC-3, P. aeruginosa expressing the Class B carbapenemase VIM-2, K. pneumoniae expressing the class A carbapenemase KPC-2 and the class B carbapenemase VIM-4, and S. aureus producing the Class A penicillinase PC-1. The assay was conducted in Cation Adjusted Mueller Hinton Broth (CAMHB, BD #212322, BD Diagnostic Systems, Sparks, Md.). Bacteria strains were grown for 3-5 hours in CAMBH broth. Test compounds (Examples 1-30) were added to a microtiter plate in 2-fold serial dilutions in CAMHB in a final concentration range of 32 μg/mL to 0.25 μg/ml. An overlay of CAMHB containing a Beta-lactam was added to the compounds at a final static concentration of 4 μg/ml. […] In addition to the titration of test compounds the MICs of a panel of control beta-lactams is also tested to ensure the strains are behaving consistently from test to test. Once the test compound and antibiotics are added the plates can be inoculated according to CLSI broth microdilution method. After inoculation the plates are incubated for 16-20 hours at 37° C. then the Minimal Inhibitory Concentration (MIC) of the test compound is determined visually.
(§5) Using the methodology described above, examples of the current invention were evaluated for their ability to inhibit the growth of β-lactamase-producing bacteria in the presence of a β-lactam antibiotic.
(§6) Using the methodology described above in EXAMPLE III, exemplary compounds for Formula I or Formula Ia were evaluated for their ability to inhibit the growth of β-lactamase producing bacteria in the presence of a β-lactam antibiotic.

[5] = molecular target: T4, p99 AmpC β-lactamase (Class C) (Enterobacter cloacae, UniProt P05364); assay: β-Lactamase inhibition, p99 AmpC; type: biochemical
T4 construct: made in house; host or cells: E. coli BL21(DE3)
T4 sequence (P05364 21-381): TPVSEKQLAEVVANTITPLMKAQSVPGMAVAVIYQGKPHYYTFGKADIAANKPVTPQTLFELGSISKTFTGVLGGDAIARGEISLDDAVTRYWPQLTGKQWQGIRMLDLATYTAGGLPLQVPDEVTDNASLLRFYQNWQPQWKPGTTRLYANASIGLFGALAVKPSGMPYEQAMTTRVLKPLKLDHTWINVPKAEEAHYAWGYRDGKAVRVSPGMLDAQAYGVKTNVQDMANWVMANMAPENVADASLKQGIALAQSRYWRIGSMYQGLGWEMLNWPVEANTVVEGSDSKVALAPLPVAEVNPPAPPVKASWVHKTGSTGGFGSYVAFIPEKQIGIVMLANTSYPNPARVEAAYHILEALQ
Procedure: as §1, §2, §3

[6] = tested on: E. cloacae 144200 expressing Class C P99 AmpC; assay: Broth microdilution MIC, E. cloacae 144200 p99 AmpC; type: cell-based; conditions: fixed 4 μg/mL ceftazidime; CAMHB, 16-20 hours at 37° C.
Source text: as §4, §5, §6

[7] = tested on: K. pneumoniae 156319 expressing KPC-3; assay: Broth microdilution MIC, K. pneumoniae 156319 KPC-3; type: cell-based; conditions: fixed 4 μg/mL meropenem; CAMHB, 16-20 hours at 37° C.
Source text: as §4, §5, §6

[8] = molecular target: T5, OXA-1 β-lactamase (Class D oxacillinase) (Escherichia coli, UniProt P13661); assay: β-Lactamase inhibition, OXA-1; type: biochemical; conditions: nitrocefin 100 μM, 486 nm; 15 min preincubation at 37° C., PBS pH 7.4
T5 construct: made in house; host or cells: E. coli BL21(DE3)
T5 sequence (P13661 26-276): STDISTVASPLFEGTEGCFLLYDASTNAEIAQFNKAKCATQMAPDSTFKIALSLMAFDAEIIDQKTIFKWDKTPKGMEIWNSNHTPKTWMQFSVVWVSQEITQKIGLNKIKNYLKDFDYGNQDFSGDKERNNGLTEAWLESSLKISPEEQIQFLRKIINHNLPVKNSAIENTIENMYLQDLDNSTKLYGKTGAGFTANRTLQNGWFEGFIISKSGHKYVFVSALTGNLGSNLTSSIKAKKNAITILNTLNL
Procedure: as §1, §2, §3

[9] = tested on: E. coli ESBL4 expressing CTX-M-15; assay: Broth microdilution MIC, E. coli ESBL4 CTX-M-15; type: cell-based; conditions: fixed 4 μg/mL ceftazidime; CAMHB, 16-20 hours at 37° C.
Source text: as §4, §5, §6

[10] = tested on: S. aureus MSSA-7 producing penicillinase PC-1; assay: Broth microdilution MIC, S. aureus MSSA-7 PC-1; type: cell-based; conditions: fixed 4 μg/mL piperacillin; CAMHB, 16-20 hours at 37° C.
Source text: as §4, §5, §6

[11] = tested on: P. aeruginosa Ps296 expressing VIM-2; assay: Broth microdilution MIC, P. aeruginosa Ps296 VIM-2; type: cell-based; conditions: fixed 4 μg/mL meropenem; CAMHB, 16-20 hours at 37° C.
Source text: as §4, §5, §6

T1 sequence (Q9F663 25-293, looked up): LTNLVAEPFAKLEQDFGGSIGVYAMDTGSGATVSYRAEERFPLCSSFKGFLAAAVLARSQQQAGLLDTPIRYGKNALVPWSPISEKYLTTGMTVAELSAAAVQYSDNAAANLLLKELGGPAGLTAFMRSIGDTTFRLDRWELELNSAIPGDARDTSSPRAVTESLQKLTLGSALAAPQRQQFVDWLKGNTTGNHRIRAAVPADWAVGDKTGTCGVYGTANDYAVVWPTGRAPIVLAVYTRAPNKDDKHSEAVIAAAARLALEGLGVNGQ

Row | SMILES | IC50 [1] | IC50 [2] | IC50 [3] | MIC of example compound in presence of fixed β-lactam: Fixed Mero, K. P. A-1797 KPC-2 VIM-4 [4] | IC50 [5] | MIC of example compound in presence of fixed β-lactam: Fixed CAZ, E. cl. 144200 p99 AmpC [6] | MIC of example compound in presence of fixed β-lactam: Fixed Mero, K. P. 156319 KPC-3 [7] | IC50 [8] | MIC of example compound in presence of fixed β-lactam: Fixed CAZ, E. coli ESBL4 CTX-M-15 [9] | MIC of example compound in presence of fixed β-lactam: Fixed Pip, S. aureus MSSA-7 PC-1 [10] | MIC of example compound in presence of fixed β-lactam: Fixed Mero, P. aerug. Ps296 VIM-2 [11]
1 | NCC1CCN(CC(=O)N[C@H]2Cc3cccc(C(=O)O)c3OB2O)CC1 [Example 5, 3-[2-(4-Aminomethyl-piperidin-1-yl)-acetylamino]-2-hydroxy-3,4-dihydro-2H-benzo[e][1,2]oxaborinine-8-carboxylic acid] | < 100 nM | 100 to 1000 nM | 1000 to 10000 nM | C (the MIC in the presence of <4 μg/mL of a β-lactamase inhibitor) | < 100 nM | C (the MIC in the presence of <4 μg/mL of a β-lactamase inhibitor) | C (the MIC in the presence of <4 μg/mL of a β-lactamase inhibitor) | < 100 nM | C (the MIC in the presence of <4 μg/mL of a β-lactamase inhibitor) | B (the MIC in the presence of between 8 and 32 μg/mL of a β-lactamase inhibitor) | B (the MIC in the presence of between 8 and 32 μg/mL of a β-lactamase inhibitor)
2 | NCC1CCCN(CC(=O)N[C@H]2Cc3cccc(C(=O)O)c3OB2O)C1 (stereo partly drawn) [Example 19, 3-[2-(3-Aminomethyl-piperidin-1-yl)-acetylamino]-2-hydroxy-3,4-dihydro-2H-benzo[e][1,2]oxaborinine-8-carboxylic acid] | 100 to 1000 nM | 10000 to 100000 nM | < 100 nM | A (an MIC of the fixed β-lactam antibiotic in the presence of >32 μg/mL of a β-lactamase inhibitor) | < 100 nM | C (the MIC in the presence of <4 μg/mL of a β-lactamase inhibitor) | B (the MIC in the presence of between 8 and 32 μg/mL of a β-lactamase inhibitor) | < 100 nM | C (the MIC in the presence of <4 μg/mL of a β-lactamase inhibitor) | B (the MIC in the presence of between 8 and 32 μg/mL of a β-lactamase inhibitor) | A (an MIC of the fixed β-lactam antibiotic in the presence of >32 μg/mL of a β-lactamase inhibitor)
3 | O=C(O)CN1CCN(CC(=O)N[C@H]2Cc3cccc(C(=O)O)c3OB2O)CC1 [Example 25, 3-[2-(4-Carboxymethyl-piperazin-1-yl)-acetylamino]-2-hydroxy-3,4-dihydro-2H-benzo[e][1,2]oxaborinine-8-carboxylic acid] | 100 to 1000 nM | 10000 to 100000 nM | < 100 nM | B (the MIC in the presence of between 8 and 32 μg/mL of a β-lactamase inhibitor) | < 100 nM | C (the MIC in the presence of <4 μg/mL of a β-lactamase inhibitor) | B (the MIC in the presence of between 8 and 32 μg/mL of a β-lactamase inhibitor) | < 100 nM | C (the MIC in the presence of <4 μg/mL of a β-lactamase inhibitor) | C (the MIC in the presence of <4 μg/mL of a β-lactamase inhibitor) | B (the MIC in the presence of between 8 and 32 μg/mL of a β-lactamase inhibitor)
